Experimental data taken from patent US20240208992A1, “MACROCYCLES AS CFTR MODULATORS” (Idorsia Pharmaceuticals Ltd, priority 2021, published 2024).

Biological target: human F508del-CFTR (Homo sapiens, UniProt P13569, DEL508-508)
Experiment: F508del-CFTR cell surface expression (corrector activity), DiscoveRx ß-galactosidase complementation chemiluminescence assay in recombinant U2OS cell line;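 note: U2OS cells co-expressing ProLink-tagged F508del-CFTR and a membrane-anchored enzyme acceptor, where more surface CFTR restores β-galactosidase activity measured by chemiluminescence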
Details: for EC50: EC50, F508del-CFTR cell surface expression, U2OS cells, 16h compound incubation, geomean values; for Emax: U2OS, in relation to Emax of corrector lumacaftor (=100%), arithmetic mean values

human F508del-CFTR, sequence (P13569 with tags, fused parts or gaps DEL508-508): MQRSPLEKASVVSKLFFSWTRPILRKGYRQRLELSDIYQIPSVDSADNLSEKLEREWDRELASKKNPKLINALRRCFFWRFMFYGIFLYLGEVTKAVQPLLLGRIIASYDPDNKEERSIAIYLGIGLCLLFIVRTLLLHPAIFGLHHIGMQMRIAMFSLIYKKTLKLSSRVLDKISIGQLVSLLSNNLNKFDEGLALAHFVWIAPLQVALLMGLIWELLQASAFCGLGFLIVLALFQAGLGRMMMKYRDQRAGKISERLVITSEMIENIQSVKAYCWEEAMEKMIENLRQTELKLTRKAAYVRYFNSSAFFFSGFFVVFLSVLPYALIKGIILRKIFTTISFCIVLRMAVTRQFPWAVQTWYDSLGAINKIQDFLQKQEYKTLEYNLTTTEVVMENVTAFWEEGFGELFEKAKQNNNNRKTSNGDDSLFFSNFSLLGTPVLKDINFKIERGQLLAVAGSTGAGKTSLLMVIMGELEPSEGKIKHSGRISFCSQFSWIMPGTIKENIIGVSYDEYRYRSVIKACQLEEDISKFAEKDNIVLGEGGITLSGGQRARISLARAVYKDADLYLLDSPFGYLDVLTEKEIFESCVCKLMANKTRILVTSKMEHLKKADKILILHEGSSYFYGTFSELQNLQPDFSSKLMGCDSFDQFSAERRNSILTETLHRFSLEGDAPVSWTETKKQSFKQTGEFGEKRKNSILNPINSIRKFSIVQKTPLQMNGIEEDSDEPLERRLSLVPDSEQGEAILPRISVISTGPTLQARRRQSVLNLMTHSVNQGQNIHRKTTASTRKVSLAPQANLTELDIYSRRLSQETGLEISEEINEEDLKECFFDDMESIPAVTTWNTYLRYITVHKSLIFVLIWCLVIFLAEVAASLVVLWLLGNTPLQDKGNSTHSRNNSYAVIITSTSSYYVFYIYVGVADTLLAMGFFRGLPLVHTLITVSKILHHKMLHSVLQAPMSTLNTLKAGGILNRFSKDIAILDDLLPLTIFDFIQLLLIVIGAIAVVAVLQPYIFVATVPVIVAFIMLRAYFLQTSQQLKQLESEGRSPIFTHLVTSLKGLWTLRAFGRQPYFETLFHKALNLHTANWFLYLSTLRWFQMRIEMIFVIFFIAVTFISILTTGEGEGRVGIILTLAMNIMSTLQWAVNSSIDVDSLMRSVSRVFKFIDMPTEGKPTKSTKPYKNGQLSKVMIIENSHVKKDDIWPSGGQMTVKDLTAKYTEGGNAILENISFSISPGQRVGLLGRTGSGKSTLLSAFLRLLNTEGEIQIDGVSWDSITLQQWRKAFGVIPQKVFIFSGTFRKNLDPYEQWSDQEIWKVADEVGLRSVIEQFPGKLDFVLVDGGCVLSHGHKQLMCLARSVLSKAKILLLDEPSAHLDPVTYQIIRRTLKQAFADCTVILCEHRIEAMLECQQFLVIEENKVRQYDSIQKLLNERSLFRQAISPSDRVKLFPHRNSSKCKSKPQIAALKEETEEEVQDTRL

## CC(C)C[C@H]1C(=O)N(C)CC(=O)N[C@H](Cc2ccccc2)COc2cccc(OC(F)F)c2C(=O)N[C@H](C(=O)NCCc2ccc3c(c2)OCO3)CC(=O)N1C [Example 616, (3R,9S,13S)-N-(2-(benzo[d][1,3]dioxol-5-yl)ethyl)-3-benzyl-16-(difluoromethoxy)-9-isobutyl-7,10-dimethyl-5,8,11,15-tetraoxo-2,3,4,5,6,7,8,9,10,11,12,13,14,15-tetradecahydrobenzo[p][1]oxa[4,7,10,14]tetraazacycloheptadecine-13-carboxamide]
  EC50: 581 nM
  Emax: 92%

## Cc1cc(CCNC(=O)[C@@H]2CC(=O)N(C)[C@@H](CC(C)C)C(=O)N3CCN(CC(C)C)C[C@@H]3C(=O)N[C@H](Cc3ccccc3)COc3ccc4ccccc4c3C(=O)N2)on1 [Example 617, (4aR,7R,18S,22S)-7-benzyl-3,22-diisobutyl-21-methyl-N-(2-(3-methylisoxazol-5-yl)ethyl)-5,16,20,23-tetraoxo-2,3,4,4a,5,6,7,8,16,17,18,19,20,21,22,23-hexadecahydro-1H-naphtho[1,2-p]pyrazino[2,1-f][1]oxa[4,7,10,14]tetraazacycloheptadecine-18-carboxamide]
  EC50: 75 nM
  Emax: 318%

## COc1cc(CCNC(=O)[C@@H]2CC(=O)N(C)[C@@H](CC(C)C)C(=O)N3CCN(C(C)C)C[C@@H]3C(=O)N[C@H](Cc3ccccc3)COc3ccc4ccccc4c3C(=O)N2)cc(OC)c1 [Example 618, (4aR,7R,18S,22S)-7-benzyl-N-(3,5-dimethoxyphenethyl)-22-isobutyl-3-isopropyl-21-methyl-5,16,20,23-tetraoxo-2,3,4,4a,5,6,7,8,16,17,18,19,20,21,22,23-hexadecahydro-1H-naphtho[1,2-p]pyrazino[2,1-f][1]oxa[4,7,10,14]tetraazacycloheptadecine-18-carboxamide]
  EC50: 80 nM
  Emax: 309%

## COc1cccc(CCNC(=O)[C@@H]2CC(=O)N(C)[C@@H](CC(C)C)C(=O)N3CCN(CC(C)C)C[C@@H]3C(=O)N[C@H](Cc3ccccc3)COc3ccc4nc(C)oc4c3C(=O)N2)c1 [Example 619, (8S,12S,18aR,21R)-21-benzyl-12,17-diisobutyl-N-(3-methoxyphenethyl)-4,11-dimethyl-6,10,13,19-tetraoxo-6,7,8,9,10,11,12,13,16,17,18,18a,19,20,21,22-hexadecahydro-15H-oxazolo[4′,5′:5,6]benzo[1,2-p]pyrazino[2,1-f][1]oxa[4,7,10,14]tetraazacycloheptadecine-8-carboxamide]
  EC50: 155 nM
  Emax: 322%

## Cc1cc(CCNC(=O)[C@@H]2CC(=O)N(C)[C@@H](CC(C)C)C(=O)N3CCN(CC(C)C)C[C@@H]3C(=O)N[C@H](Cc3ccccc3)COc3ccc4nc(C)oc4c3C(=O)N2)on1 [Example 620, (8S,12S,18aR,21R)-21-benzyl-12,17-diisobutyl-4,11-dimethyl-N-(2-(3-methylisoxazol-5-yl)ethyl)-6,10,13,19-tetraoxo-6,7,8,9,10,11,12,13,16,17,18,18a,19,20,21,22-hexadecahydro-15H-oxazolo[4′,5′:5,6]benzo[1,2-p]pyrazino[2,1-f][1]oxa[4,7,10,14]tetraazacycloheptadecine-8-carboxamide]
  EC50: 316 nM
  Emax: 266%

## Cc1cc(CCNC(=O)[C@@H]2CC(=O)N(C)[C@@H](CC(C)C)C(=O)N3CCN(CC(C)C)C[C@H]3C(=O)N[C@H](Cc3ccccc3)COc3ccc4nc(C)oc4c3C(=O)N2)on1 [Example 621, (8S,12S,18aS,21R)-21-benzyl-12,17-diisobutyl-4,11-dimethyl-N-(2-(3-methylisoxazol-5-yl)ethyl)-6,10,13,19-tetraoxo-6,7,8,9,10,11,12,13,16,17,18,18a,19,20,21,22-hexadecahydro-15H-oxazolo[4′,5′:5,6]benzo[1,2-p]pyrazino[2,1-f][1]oxa[4,7,10,14]tetraazacycloheptadecine-8-carboxamide]
  EC50: 339 nM
  Emax: 288%
